Reference: patent US20040097573A1, “Use of a COX-2 inhibitor and a NK-1 receptor antagonist for treating inflammation” (priority 1998, published 2004)

Key:
[1] = tested on: foot tapping in gerbils induced by central infusion of NK-1 receptor agonists such as GR73632; assay: Gerbil foot-tapping (Assay 2); type: in vivo, Mongolian gerbils; settings: i.v.
Text: ASSAY 2: Gerbil Foot-Tapping
CNS-penetrant NK-1 receptor antagonists for use in the present invention can be identified by their ability to inhibit foot tapping in gerbils induced by central infusion of NK-1 receptor agonists such as GR73632, based on the method of Rupniak & Williams, Eur. J. Pharmacol., 1994, 265, 179.
Male or female Mongolian gerbils (35-70 g) are anaesthetised by inhalation of an isoflurane/oxygen mixture to permit exposure of the jugular vein in order to permit administration of test compounds or vehicle in an injection volume of approximately 5 ml/kg i.v. Alternatively, test compounds may be administered orally or by subcutaneous or intraperitoneal routes. A skin incision is then made in the midline of the scalp to expose the skull. The selective NK-1 receptor agonist (e.g. GR73632 (d Ala[L-Pro^9,Me-Leu^10]-substance P-(7-11)) is infused directly into the cerebral ventricles (e.g. 3 pmol in 5 μl i.c.v., depending on test substance) by vertical insertion of a cuffed 27 gauge needle to a depth of 4.5 mm below bregma. The scalp incision is closed and the animal allowed to recover from anaesthesia in a clear perspex observation box (approximately 25 cm×20 cm×20 cm). The duration and/or intensity of hind foot tapping is then recorded continuously for approximately 5 minutes.

[2] = tested on: cisplatin-induced emesis in ferrets; assay: Ferret emesis (Assay 3); type: in vivo; settings: p.o.
Experimental: ASSAY 3: Ferret Emesis Individually housed male ferrets (1.0-2.5 kg) are dosed orally by gavage with test compound. Ten minutes later they are fed with approximately 100 g of tinned cat food. At 60 minutes following oral dosing, cisplatin (10 mg/kg) is given i.v. via a jugular vein catheter inserted under a brief period of halothane anaesthesia. The catheter is then removed, the jugular vein ligated and the skin incision closed. The ferrets recover rapidly from the anaesthetic and are mobile within 10-20 minutes. The animals are observed continuously during recovery from the anaesthetic and for 4 hours following the cisplatin injection, after which time the animals are killed humanely. The numbers of retches and vomits occurring during the 4 hours after cisplatin administration are recorded by trained observers.

| SMILES | gerbil foot-tapping (5 mins.) ID50 [1] | gerbil foot-tapping (24 hrs.) ID50 [1] | ferret emesis ID90 [2] |
| --- | --- | --- | --- |
| C[C@@H](O[C@H]1OCCN(Cc2n[nH]c(=O)[nH]2)[C@H]1c1ccc(F)cc1)c1cc(C(F)(F)F)cc(C(F)(F)F)c1 [2-(R)-(1-(R)-(3,5-bis(trifluoromethyl)phenyl)-ethoxy)-3-(S)-(4-fluorophenyl)-4-(3-(5-oxo-1H,4H-1,2,4-triazolo)methyl)-morpholine] | ID50 = 0.36 mg/kg i.v. | ID50 = 0.33 mg/kg i.v. | ID90 < 3 mg/kg p.o. |
| C[C@@H](O[C@H]1OCCN(Cc2nn[nH]c2CN(C)C)[C@H]1c1ccccc1)c1cc(C(F)(F)F)cc(C(F)(F)F)c1 [2-(R)-(1-(R)-(3,5-bis(trifluoromethyl)phenyl)ethoxy)-4-(5-(N,N-dimethylamino)methyl-1,2,3-triazol-4-yl)methyl-3-(S)-phenylmorpholine] | ID50 = 0.12 mg/kg i.v. | ID50 = 0.17 mg/kg i.v. |  |
